Assay results reported in patent US9212168B2 (priority 2011, dated 2015).

Columns and labels:
HCV genotype 1b replicon = HCV genotype 1b replicon assay (Renilla luciferase readout); type: cell-based, hepatitis C virus; conditions: HCV genotype 1b replicon
Text: Assay 1: HCV Genotype 1b Replicon Assay
The HCV genotype 1b replicon cell line was obtained from Apath LLC (Brooklyn, N.Y.) (APC144; Huh7 cell background). This subgenomic replicon contains the N-terminus of the HCV core protein fused to the neomycin-resistance selectable marker. The EMCV IRES lies downstream and drives expression of humanized Renilla luciferase fused to the non-structural proteins NS3-NS5B. This cell line was used to determine compound potency using the luciferase activity readout as a measurement of compound inhibition of replicon levels.
Cells were grown at 37° C. in a 5% CO2 humidified incubator in DMEM (Invitrogen) with 10% FBS (HyClone), 1×NEAA (Invitrogen), 1× Pen-Strep (Invitrogen), and 500 μg/mL G418 (Invitrogen). On day 1 of the assay, cells were plated at 10,000 cells/well in white 96-well tissue culture plates (Costar) in 200 μL media lacking G418. Four hours later, once the cells have adhered, the media was removed and replaced with media (no G418) containing dose-responses of test compounds. Compounds were initially diluted in DMSO and then diluted another 200× in media to bring the final DMSO concentration down to 0.5%. The cells were incubated with test compounds for 48 hours. At the end of the incubation period, media and compound were removed from the plates and the luciferase activity was determined using Promega Renilla-Glo reagents.
To analyze the data, the luciferase activity was plotted vs. the compound concentration, and EC50 values were determined from a 4-parameter robust fit model with the GraphPad Prism software package (GraphPad Software, Inc., San Diego, Calif.). Results are expressed as the negative decadic logarithm of the EC50 value, pEC50.
Test compounds having a higher pEC50 value in this assay show greater inhibition of HCV genotype 1b replication.

HCV genotype 1a replicon = HCV genotype 1a replicon assay (NS3 protease activity readout); type: cell-based, hepatitis C virus; conditions: HCV genotype 1a replicon
In short: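 Genotype 1a subgenomic replicon cells (APC89, Huh7.5) were treated with compound dose-responses in G418-free medium, 0.5% DMSO final, for 48 or 72 hours at 37° C. Lysate NS3/4a protease activity measured with 15 μM FRET substrate, 20 min at 37° C (ex 340/em 509 nm); EC50 by 4-parameter fit.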

| SMILES | Genotype 1b (HCV genotype 1b replicon) | Genotype 1a (HCV genotype 1a replicon) |
| --- | --- | --- |
| COC(=O)N[C@H](C(=O)N1C[C@@H](C)C[C@H]1c1nc(-c2ccc(-c3cc(Cl)c(C(=O)Nc4ccc(N5CCN(C(=O)C(C)(C)C)[C@H](C)C5)nc4)cc3OC(F)(F)F)cc2)c[nH]1)C1CCOCC1 [24-3] | D (D represents pEC50>10 (EC50<0.1 nM)) | C (C represents pEC50 between and 9 and about 10, (EC50 between 1 nM and 0.1 nM)) |
| COC[C@H]1CN(c2ccc(NC(=O)c3cc(OC(F)(F)F)c(-c4ccc(-c5c[nH]c([C@@H]6C[C@H](C)CN6C(=O)[C@@H](NC(=O)OC)C6CCOCC6)n5)cc4)cc3Cl)cn2)CCN1C(=O)C(C)(C)C [24-4] | D (D represents pEC50>10 (EC50<0.1 nM)) | C (C represents pEC50 between and 9 and about 10, (EC50 between 1 nM and 0.1 nM)) |
| COC[C@H]1C[C@@H](c2nc(-c3ccc(-c4cc(Cl)c(C(=O)Nc5ccc(N6CCN(C(=O)C(C)(C)C)C[C@H]6C)nc5)cc4OC(F)(F)F)cc3)c[nH]2)N(C(=O)[C@@H](NC(=O)OC)C2CCOCC2)C1 [24-6] | D (D represents pEC50>10 (EC50<0.1 nM)) | D (D represents pEC50>10 (EC50<0.1 nM)) |
| CNC(=O)N1CCN(c2ccc(C(=O)Nc3cc(OC(F)(F)F)c(-c4ccc(-c5c[nH]c([C@@H]6C[C@H](C)CN6C(=O)[C@@H](NC(=O)OC)C(C)C)n5)cc4)cc3F)cn2)[C@H](C)C1 [Example 1-1] | D (D represents pEC50>10 (EC50<0.1 nM)) | D (D represents pEC50>10 (EC50<0.1 nM)) |
| COC(=O)N[C@H](C(=O)N1C[C@@H](C)C[C@H]1c1nc(-c2ccc(-c3cc(F)c(NC(=O)c4ccc(N5CCN(C(=O)C6CC6)C[C@H]5C)nc4)cc3OC(F)(F)F)cc2)c[nH]1)C(C)C [Example 1-3] | D (D represents pEC50>10 (EC50<0.1 nM)) | D (D represents pEC50>10 (EC50<0.1 nM)) |
| COC(=O)N[C@H](C(=O)N1C[C@@H](C)C[C@H]1c1nc(-c2ccc(-c3cc(F)c(NC(=O)c4ccc(N5CCN(C(=O)[C@H]6CC6(C)C)C[C@H]5C)nc4)cc3C(F)(F)F)cc2)c[nH]1)C(C)C [Example 1-5] | D (D represents pEC50>10 (EC50<0.1 nM)) | D (D represents pEC50>10 (EC50<0.1 nM)) |
| COC(=O)N[C@H](C(=O)N1C[C@@H](C)C[C@H]1c1nc(-c2ccc(-c3cc(F)c(NC(=O)c4ccc(N5C[C@H](C)N(C(=O)[C@H]6CC6(C)C)C[C@H]5C)nc4)cc3C(F)(F)F)cc2)c[nH]1)C(C)C [Example 1-7] | D (D represents pEC50>10 (EC50<0.1 nM)) | D (D represents pEC50>10 (EC50<0.1 nM)) |
| CNC(=O)N1C[C@@H](C)N(c2ccc(C(=O)Nc3cc(C(F)(F)F)c(-c4ccc(-c5c[nH]c([C@@H]6C[C@H](C)CN6C(=O)[C@@H](NC(=O)OC)C(C)C)n5)cc4)cc3F)cn2)C[C@@H]1C [Example 1-8] | D (D represents pEC50>10 (EC50<0.1 nM)) | D (D represents pEC50>10 (EC50<0.1 nM)) |
| CNC(=O)N1CCN(c2ccc(C(=O)Nc3cc(C(F)(F)F)c(-c4ccc(-c5c[nH]c([C@@H]6C[C@H](C)CN6C(=O)[C@@H](NC(=O)OC)C(C)C)n5)cc4)cc3F)cn2)[C@H](C)C1 [Example 1-9] | D (D represents pEC50>10 (EC50<0.1 nM)) | D (D represents pEC50>10 (EC50<0.1 nM)) |
| COC(=O)N[C@H](C(=O)N1C[C@@H](C)C[C@H]1c1nc(-c2ccc(-c3cc(F)c(NC(=O)c4ccc(N5CCN(C(=O)[C@H]6CC6(C)C)C[C@H]5C)nc4)cc3OC(F)(F)F)cc2)c[nH]1)C(C)C [Example 1-10] | D (D represents pEC50>10 (EC50<0.1 nM)) | D (D represents pEC50>10 (EC50<0.1 nM)) |
| COC(=O)N[C@H](C(=O)N1C[C@@H](C)C[C@H]1c1nc(-c2ccc(-c3cc(Cl)c(NC(=O)c4ccc(N5C[C@H](C)N(C(=O)[C@H]6CC6(C)C)C[C@H]5C)nc4)cc3C(F)(F)F)cc2)c[nH]1)C(C)C [Example 1-11] | D (D represents pEC50>10 (EC50<0.1 nM)) | D (D represents pEC50>10 (EC50<0.1 nM)) |
| CNC(=O)N1C[C@@H](C)N(c2ccc(C(=O)Nc3cc(C(F)(F)F)c(-c4ccc(-c5c[nH]c([C@@H]6C[C@H](C)CN6C(=O)[C@@H](NC(=O)OC)C(C)C)n5)cc4)cc3Cl)cn2)C[C@@H]1C [Example 1-12] | D (D represents pEC50>10 (EC50<0.1 nM)) | D (D represents pEC50>10 (EC50<0.1 nM)) |
| COC(=O)N[C@H](C(=O)N1C[C@@H](C)C[C@H]1c1nc(-c2ccc(-c3cc(F)c(NC(=O)c4ccc(N5C[C@H](C)N(C(=O)[C@H]6CC6(C)C)C[C@H]5C)nc4)cc3OC(F)(F)F)cc2)c[nH]1)C(C)C [Example 1-13] | D (D represents pEC50>10 (EC50<0.1 nM)) | D (D represents pEC50>10 (EC50<0.1 nM)) |
| COC(=O)N[C@H](C(=O)N1C[C@@H](C)C[C@H]1c1nc(-c2ccc(-c3cc(F)c(NC(=O)c4ccc(N5C[C@H](C)N(C(=O)c6c[nH]cn6)C[C@H]5C)nc4)cc3OC(F)(F)F)cc2)c[nH]1)C(C)C [Example 1-14] | D (D represents pEC50>10 (EC50<0.1 nM)) | D (D represents pEC50>10 (EC50<0.1 nM)) |
| COC(=O)N[C@H](C(=O)N1C[C@@H](C)C[C@H]1c1nc(-c2ccc(-c3cc(F)c(NC(=O)c4ccc(N5C[C@H](C)N(C(=O)C6CC6)C[C@H]5C)nc4)cc3OC(F)(F)F)cc2)c[nH]1)C(C)C [Example 1-15] | D (D represents pEC50>10 (EC50<0.1 nM)) | D (D represents pEC50>10 (EC50<0.1 nM)) |
| CNC(=O)N1C[C@@H](C)N(c2ccc(C(=O)Nc3cc(OC(F)(F)F)c(-c4ccc(-c5c[nH]c([C@@H]6C[C@H](C)CN6C(=O)[C@@H](NC(=O)OC)C(C)C)n5)cc4)cc3F)cn2)C[C@@H]1C [Example 1-16] | D (D represents pEC50>10 (EC50<0.1 nM)) | D (D represents pEC50>10 (EC50<0.1 nM)) |
| CNC(=O)N1CCN(c2ccc(C(=O)Nc3cc(OC(F)(F)F)c(-c4ccc(-c5c[nH]c([C@@H]6C[C@H](C)CN6C(=O)[C@@H](NC(=O)OC)C(C)C)n5)cc4)cc3Cl)cn2)[C@H](C)C1 [Example 1-17] | D (D represents pEC50>10 (EC50<0.1 nM)) | D (D represents pEC50>10 (EC50<0.1 nM)) |
| COC(=O)N[C@H](C(=O)N1C[C@@H](C)C[C@H]1c1nc(-c2ccc(-c3cc(Cl)c(NC(=O)c4ccc(N5CCN(C(=O)c6c[nH]cn6)C[C@H]5C)nc4)cc3OC(F)(F)F)cc2)c[nH]1)C(C)C [Example 1-18] | D (D represents pEC50>10 (EC50<0.1 nM)) | D (D represents pEC50>10 (EC50<0.1 nM)) |
| COC(=O)N[C@H](C(=O)N1C[C@@H](C)C[C@H]1c1nc(-c2ccc(-c3cc(Cl)c(NC(=O)c4ccc(N5C[C@H](C)N(C(=O)c6c[nH]cn6)C[C@H]5C)nc4)cc3OC(F)(F)F)cc2)c[nH]1)C(C)C [Example 1-19] | D (D represents pEC50>10 (EC50<0.1 nM)) | D (D represents pEC50>10 (EC50<0.1 nM)) |
| COC(=O)N[C@H](C(=O)N1C[C@@H](C)C[C@H]1c1nc(-c2ccc(-c3cc(Cl)c(NC(=O)c4ccc(N5C[C@H](C)N(C(=O)[C@H]6CC6(C)C)C[C@H]5C)nc4)cc3OC(F)(F)F)cc2)c[nH]1)C(C)C [Example 1-20] | D (D represents pEC50>10 (EC50<0.1 nM)) | D (D represents pEC50>10 (EC50<0.1 nM)) |
| CNC(=O)N1CCN(c2ccc(C(=O)Nc3cc(C(F)(F)F)c(-c4ccc(-c5c[nH]c([C@@H]6C[C@H](C)CN6C(=O)[C@@H](NC(=O)OC)C(C)C)n5)cc4)cc3Cl)cn2)[C@H](C)C1 [Example 1-30] | D (D represents pEC50>10 (EC50<0.1 nM)) | D (D represents pEC50>10 (EC50<0.1 nM)) |
| COC(=O)N[C@H](C(=O)N1C[C@@H](C)C[C@H]1c1nc(-c2ccc(-c3cc(Cl)c(NC(=O)c4ccc(N5CCN(C(=O)c6ncc[nH]6)C[C@H]5C)nc4)cc3OC(F)(F)F)cc2)c[nH]1)C(C)C [Example 1-35] | D (D represents pEC50>10 (EC50<0.1 nM)) | D (D represents pEC50>10 (EC50<0.1 nM)) |
| COC(=O)N[C@H](C(=O)N1C[C@@H](C)C[C@H]1c1nc(-c2ccc(-c3cc(Cl)c(NC(=O)c4ccc(N5CCN(C(=O)c6nccn6C)C[C@H]5C)nc4)cc3OC(F)(F)F)cc2)c[nH]1)C(C)C [Example 1-36] | D (D represents pEC50>10 (EC50<0.1 nM)) | D (D represents pEC50>10 (EC50<0.1 nM)) |
| COC(=O)N[C@H](C(=O)N1C[C@@H](C)C[C@H]1c1nc(-c2ccc(-c3cc(Cl)c(NC(=O)c4ccc(N5C[C@H](C)N(C(=O)C6CC6)C[C@H]5C)nc4)cc3OC(F)(F)F)cc2)c[nH]1)C(C)C [Example 1-43] | D (D represents pEC50>10 (EC50<0.1 nM)) | D (D represents pEC50>10 (EC50<0.1 nM)) |
| COC(=O)N[C@H](C(=O)N1C[C@@H](C)C[C@H]1c1nc(-c2ccc(-c3cc(Cl)c(NC(=O)c4ccc(N5CCN(C(=O)C(C)(C)C)C[C@H]5C)nc4)cc3C(F)(F)F)cc2)c[nH]1)C(C)C [Example 1-61] | D (D represents pEC50>10 (EC50<0.1 nM)) | D (D represents pEC50>10 (EC50<0.1 nM)) |
